Test results published in US20230150974A1 (Foghorn Therapeutics Inc., priority 2020, published 2023).

Columns and labels:
HiBit-BRG1 = molecular target: T1, HiBit-BRG1 (Homo sapiens, UniProt P51532); assay: HiBit-BRG1 cell-based degradation assay (Nano-Glo HiBiT Lytic Detection); settings: HeLa cells expressing HiBit-BRG1 and LgBit, 24 h; for DC50: read-out: BRG1 HiBit Degradation IC50; for Dmax: read-out: BRG1 HiBit Degradation Maximum (%)
T1 construct: expressed in transfected cells
Method in brief: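 Stable HeLa line co-expressing HiBit-BRG1 and LgBit, 5000 cells/well, treated 24 h in a tissue culture incubator. Lysed with Nano-Glo HiBiT lytic reagent, luminescence read. % degradation normalized to DMSO (high control) and 2 μM reference BRM/BRG1 degrader (low control).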

HiBiT-BRM = molecular target: T2, HiBiT-BRM (Homo sapiens, UniProt P51531); assay: HiBiT-BRM cell-based degradation assay (Nano-Glo HiBiT Lytic Detection); settings: HeLa cells expressing HiBiT-BRM, 24 h; for DC50: read-out: BRM HiBit Degradation IC50
T2 construct: expressed in transfected cells
Method in brief: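 Luminescence from HiBiT–LgBiT complementation in lysates of a stable HiBiT-BRM HeLa line measured after 24 h compound exposure. Degradation expressed as percent relative to DMSO-treated cells and cells given 2 μM of a known BRM/BRG1 degrader.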

T1 sequence (P51532 whole entry): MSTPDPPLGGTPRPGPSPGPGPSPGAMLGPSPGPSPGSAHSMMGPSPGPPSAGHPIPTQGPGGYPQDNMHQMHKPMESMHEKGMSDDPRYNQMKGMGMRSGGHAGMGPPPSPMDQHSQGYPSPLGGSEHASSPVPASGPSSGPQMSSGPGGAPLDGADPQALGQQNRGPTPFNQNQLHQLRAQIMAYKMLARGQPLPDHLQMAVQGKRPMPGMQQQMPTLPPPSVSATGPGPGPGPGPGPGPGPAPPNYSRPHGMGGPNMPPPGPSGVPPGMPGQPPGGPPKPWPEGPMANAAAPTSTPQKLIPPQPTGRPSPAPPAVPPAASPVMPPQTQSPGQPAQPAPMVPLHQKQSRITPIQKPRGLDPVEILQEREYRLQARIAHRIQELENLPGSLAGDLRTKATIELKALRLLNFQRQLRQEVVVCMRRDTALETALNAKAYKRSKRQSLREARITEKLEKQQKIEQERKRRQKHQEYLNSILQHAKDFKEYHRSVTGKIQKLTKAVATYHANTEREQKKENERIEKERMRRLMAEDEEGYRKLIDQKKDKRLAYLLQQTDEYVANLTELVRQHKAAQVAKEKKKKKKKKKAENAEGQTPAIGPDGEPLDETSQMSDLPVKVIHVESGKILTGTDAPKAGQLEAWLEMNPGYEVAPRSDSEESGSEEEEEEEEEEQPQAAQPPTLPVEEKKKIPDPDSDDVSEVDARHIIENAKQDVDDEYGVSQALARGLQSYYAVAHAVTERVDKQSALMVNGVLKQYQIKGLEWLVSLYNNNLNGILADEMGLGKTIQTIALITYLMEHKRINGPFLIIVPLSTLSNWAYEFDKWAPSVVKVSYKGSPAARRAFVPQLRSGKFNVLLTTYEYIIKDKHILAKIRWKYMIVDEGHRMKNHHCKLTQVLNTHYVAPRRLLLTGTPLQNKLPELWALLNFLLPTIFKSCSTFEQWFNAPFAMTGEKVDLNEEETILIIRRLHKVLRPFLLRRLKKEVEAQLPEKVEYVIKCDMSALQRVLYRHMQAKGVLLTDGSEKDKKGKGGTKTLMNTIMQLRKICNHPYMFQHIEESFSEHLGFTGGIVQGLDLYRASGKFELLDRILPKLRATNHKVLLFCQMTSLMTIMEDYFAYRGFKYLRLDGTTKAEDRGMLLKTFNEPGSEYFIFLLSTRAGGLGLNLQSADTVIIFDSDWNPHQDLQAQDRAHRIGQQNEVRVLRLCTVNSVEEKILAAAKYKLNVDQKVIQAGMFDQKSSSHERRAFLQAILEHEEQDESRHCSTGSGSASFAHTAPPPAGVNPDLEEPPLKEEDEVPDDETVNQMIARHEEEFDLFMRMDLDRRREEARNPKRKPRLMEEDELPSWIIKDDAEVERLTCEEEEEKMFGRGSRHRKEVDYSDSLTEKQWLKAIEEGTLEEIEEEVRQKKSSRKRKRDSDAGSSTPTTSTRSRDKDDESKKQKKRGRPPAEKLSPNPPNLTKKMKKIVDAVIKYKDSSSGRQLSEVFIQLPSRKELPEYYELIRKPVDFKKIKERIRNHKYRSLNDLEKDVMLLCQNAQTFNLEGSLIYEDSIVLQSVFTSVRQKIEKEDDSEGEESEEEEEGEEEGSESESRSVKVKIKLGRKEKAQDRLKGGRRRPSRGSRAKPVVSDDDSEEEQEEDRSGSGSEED
T2 sequence (P51531 whole entry): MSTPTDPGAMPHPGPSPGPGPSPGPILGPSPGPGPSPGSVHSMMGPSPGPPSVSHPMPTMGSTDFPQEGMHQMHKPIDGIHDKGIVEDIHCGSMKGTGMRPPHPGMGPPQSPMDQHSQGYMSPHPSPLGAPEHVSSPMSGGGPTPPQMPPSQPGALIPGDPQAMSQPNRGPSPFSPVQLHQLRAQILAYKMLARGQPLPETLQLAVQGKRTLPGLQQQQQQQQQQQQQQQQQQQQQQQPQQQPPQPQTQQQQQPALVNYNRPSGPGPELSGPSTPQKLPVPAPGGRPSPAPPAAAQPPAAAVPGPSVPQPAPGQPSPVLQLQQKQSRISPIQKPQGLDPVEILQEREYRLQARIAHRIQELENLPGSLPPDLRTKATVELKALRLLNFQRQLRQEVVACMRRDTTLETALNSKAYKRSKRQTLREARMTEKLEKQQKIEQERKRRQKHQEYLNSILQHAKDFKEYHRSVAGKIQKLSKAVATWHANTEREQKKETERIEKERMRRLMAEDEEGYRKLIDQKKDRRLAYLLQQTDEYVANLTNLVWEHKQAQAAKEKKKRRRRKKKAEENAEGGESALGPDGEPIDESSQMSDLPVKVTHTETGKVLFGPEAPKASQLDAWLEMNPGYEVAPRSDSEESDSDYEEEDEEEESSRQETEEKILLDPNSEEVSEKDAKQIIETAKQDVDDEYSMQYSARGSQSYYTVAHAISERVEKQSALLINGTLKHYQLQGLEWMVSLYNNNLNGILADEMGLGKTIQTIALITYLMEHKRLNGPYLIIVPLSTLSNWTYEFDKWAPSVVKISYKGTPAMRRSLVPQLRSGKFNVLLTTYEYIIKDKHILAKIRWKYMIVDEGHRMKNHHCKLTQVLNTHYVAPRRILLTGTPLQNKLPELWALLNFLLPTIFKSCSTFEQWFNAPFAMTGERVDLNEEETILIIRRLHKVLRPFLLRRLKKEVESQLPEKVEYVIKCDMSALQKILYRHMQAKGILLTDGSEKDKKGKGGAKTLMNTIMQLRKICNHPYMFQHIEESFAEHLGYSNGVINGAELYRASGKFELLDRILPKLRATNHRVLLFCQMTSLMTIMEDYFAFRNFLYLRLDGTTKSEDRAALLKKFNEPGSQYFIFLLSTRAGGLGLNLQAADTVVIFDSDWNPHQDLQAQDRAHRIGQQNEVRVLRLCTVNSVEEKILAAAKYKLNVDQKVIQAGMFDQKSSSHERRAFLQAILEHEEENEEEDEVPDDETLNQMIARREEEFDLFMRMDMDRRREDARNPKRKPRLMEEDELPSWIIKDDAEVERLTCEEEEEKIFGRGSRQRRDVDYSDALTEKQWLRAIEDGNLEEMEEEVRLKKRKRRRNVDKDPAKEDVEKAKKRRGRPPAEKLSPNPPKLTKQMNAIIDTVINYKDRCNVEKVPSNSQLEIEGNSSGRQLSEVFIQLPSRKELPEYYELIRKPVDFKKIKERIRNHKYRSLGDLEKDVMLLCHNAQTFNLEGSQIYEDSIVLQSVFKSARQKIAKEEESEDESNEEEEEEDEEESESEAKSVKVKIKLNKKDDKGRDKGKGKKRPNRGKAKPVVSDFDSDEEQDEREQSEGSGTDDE

SMILES	DC50 (HiBit-BRG1)	Dmax (HiBit-BRG1)	BRM HiBit Degradation Maximum (%) (HiBiT-BRM)	DC50 (HiBiT-BRM)
Nc1nnc(-c2ccccc2O)cc1OCCc1ccc(C(=O)NCCCCCCCCCCCCCCC(=O)NCc2ccc(S(=O)(=O)Nc3cccc4c(Cl)c[nH]c34)cc2)cc1 [Compound 6, 15-[[4-(2-[[3-amino-6-(2-hydroxyphenyl)pyridazin-4-yl]oxy]ethyl)phenyl]formamido]-N-([4-[(3-chloro-1H-indol-7-yl)sulfamoyl]phenyl]methyl)pentadecanamide]	> 1000 nM	< 50%	C (“C” indicates maximum degradation <50%)	> 1000 nM
Nc1nnc(-c2ccccc2O)cc1OCCc1ccc(CNC(=O)CCCCNc2ccc3nnn(C4CCC(=O)NC4=O)c(=O)c3c2)cc1 (stereo not drawn) [Compound 125, N-(4-(2-((3-amino-6-(2-hydroxyphenyl)pyridazin-4-yl)oxy)ethyl)benzyl)-5-((3-(2,6-dioxopiperidin-3-yl)-4-oxo-3,4-dihydrobenzo[d][1,2,3]triazin-6-yl)amino)pentanamide]	> 1000 nM	> 50%	C (“C” indicates maximum degradation <50%)	> 1000 nM
Nc1nnc(-c2ccccc2O)cc1N1CCN(CCNC(=O)CCCCCCCOc2cccc3c2C(=O)N(C2CCC(=O)NC2=O)C3=O)CC1 (stereo not drawn) [Compound 90, N-(2-[4-[3-amino-6-(2-hydroxyphenyl)pyridazin-4-yl]piperazin-1-yl]ethyl)-8-[[2-(2,6-dioxopiperidin-3-yl)-1,3-dioxo-2,3-dihydro-1H-isoindol-4-yl]oxy]octanamide]	> 1000 nM	< 50%	C (“C” indicates maximum degradation <50%)	> 1000 nM
Cc1ncsc1-c1ccc([C@H](C)NC(=O)[C@@H]2C[C@@H](O)CN2C(=O)[C@@H](c2cc(OCCN3CCC(OC4CCN(C(=O)c5ccc(CCOc6cc(-c7ccccc7O)nnc6N)cc5)CC4)CC3)no2)C(C)C)cc1 [Compound 210, (2S,4R)-1-((R)-2-(3-(2-(4-((1-(4-(2-((3-amino-6-(2-hydroxyphenyl)pyridazin-4-yl)oxy)ethyl)benzoyl)piperidin-4-yl)oxy)piperidin-1-yl)ethoxy)isoxazol-5-yl)-3-methylbutanoyl)-4-hydroxy-N-((S)-1-(4-(4-methylthiazol-5-yl)phenyl)ethyl)pyrrolidine-2-carboxamide]	> 100 nM	> 50%	A (“A” indicates maximum degradation ≥75%)	< 10 nM
CN(CCc1ccc(CNC(=O)CCCCOc2cccc3c2C(=O)N(C2CCC(=O)NC2=O)C3=O)cc1)c1cc(-c2ccccc2O)nnc1N (stereo not drawn) [Compound 146, N-(4-(2-((3-amino-6-(2-hydroxyphenyl)pyridazin-4-yl)(methyl)amino)ethyl)benzyl)-5-((2-(2,6-dioxopiperidin-3-yl)-1,3-dioxoisoindolin-4-yl)oxy)pentanamide]	> 1000 nM	< 50%	C (“C” indicates maximum degradation <50%)	> 1000 nM
Nc1nnc(-c2ccccc2O)cc1OCCc1ccc(CN2CCN(CCOc3cccc4c3C(=O)N(C3CCC(=O)NC3=O)C4=O)CC2)cc1 (stereo not drawn) [Compound 126, 4-[2-(4-[[4-(2-[[3-amino-6-(2-hydroxyphenyl)pyridazin-4-yl]oxy]ethyl)phenyl]methyl]piperazin-1-yl)ethoxy]-2-(2,6-dioxopiperidin-3-yl)isoindole-1,3-dione]	> 1000 nM	< 50%	C (“C” indicates maximum degradation <50%)	> 1000 nM
Cc1ncsc1-c1ccc(CNC(=O)[C@@H]2C[C@@H](O)CN2C(=O)[C@@H](NC(=O)CCCOCCOCCNC(=O)c2ccc(CCOc3cc(-c4ccccc4O)nnc3N)cc2)C(C)(C)C)cc1 [Compound 24, (2S,4R)-1-[(2S)-2-[4-[2-(2-[[4-(2-[[3-amino-6-(2-hydroxyphenyl)pyridazin-4-yl]oxy]ethyl)phenyl]formamido]ethoxy)ethoxy]butanamido]-3,3-dimethylbutanoyl]-4-hydroxy-N-[[4-(4-methyl-1,3-thiazol-5-yl)phenyl]methyl]pyrrolidine-2-carboxamide]	> 1000 nM	< 50%	C (“C” indicates maximum degradation <50%)	> 1000 nM
Nc1nnc(-c2ccccc2O)cc1N1CCN(CC(=O)NCCCCS(=O)(=O)CCCNc2cccc3c2C(=O)N(C2CCC(=O)NC2=O)C3=O)CC1 (stereo not drawn) [Compound 80, 2-[4-[3-amino-6-(2-hydroxyphenyl)pyridazin-4-yl]piperazin-1-yl]-N-[4-(3-[[2-(2,6-dioxopiperidin-3-yl)-1,3-dioxoisoindol-4-yl]amino]propanesulfonyl)butyl]acetamide]	> 1000 nM	< 50%	C (“C” indicates maximum degradation <50%)	> 1000 nM
Nc1nnc(-c2ccccc2O)cc1OCCc1ccc(CNC(=O)CCCCNc2cccc3c2C(=O)N(C2CCC(=O)NC2=O)C3=O)cc1 (stereo not drawn) [Compound 4, N-[[4-(2-[[3-amino-6-(2-hydroxyphenyl)pyridazin-4-yl]oxy]ethyl)phenyl]methyl]-5-[[2-(2,6-dioxopiperidin-3-yl)-1,3-dioxoisoindol-4-yl]amino]pentanamide]	> 1000 nM	–	B (“B” indicates maximum degradation ≥50%)	> 100 nM
Cc1ncsc1-c1ccc(CNC(=O)[C@@H]2C[C@@H](O)CN2C(=O)[C@@H](NC(=O)COCCOCCOCCOCCOCC(=O)NCc2ccc(CCOc3cc(-c4ccccc4O)nnc3N)cc2)C(C)(C)C)cc1 [Compound 168, N1-(4-(2-((3-amino-6-(2-hydroxyphenyl)pyridazin-4-yl)oxy)ethyl)benzyl)-N17-((S)-1-((2S,4R)-4-hydroxy-2-((4-(4-methylthiazol-5-yl)benzyl)carbamoyl)pyrrolidin-1-yl)-3,3-dimethyl-1-oxobutan-2-yl)-3,6,9,12,15-pentaoxaheptadecanedia]	> 1000 nM	< 50%	C (“C” indicates maximum degradation <50%)	> 1000 nM
Cc1ncsc1-c1ccc(CNC(=O)[C@@H]2C[C@@H](O)CN2C(=O)[C@@H](NC(=O)CCN2CCC3(CCN(CCC(=O)NCc4ccc(CCOc5cc(-c6ccccc6O)nnc5N)cc4)CC3)CC2)C(C)(C)C)cc1 [Compound 252, (2S,4R)-1-((S)-2-(3-(9-(3-((4-(2-((3-amino-6-(2-hydroxyphenyl)pyridazin-4-yl)oxy)ethyl)benzyl)amino)-3-oxopropyl)-3,9-diazaspiro[5.5]undecan-3-yl)propanamido)-3,3-dimethylbutanoyl)-4-hydroxy-N-(4-(4-methylthiazol-5-yl)benzyl)pyrrolidine-2-carboxamide]	> 1000 nM	< 50%	C (“C” indicates maximum degradation <50%)	> 1000 nM
Cc1ncsc1-c1ccc([C@H](C)NC(=O)[C@@H]2C[C@@H](O)CN2C(=O)[C@@H](NC(=O)CCCCCCCCCCN2CCN(Cc3ccc(CCOc4cc(-c5ccccc5O)nnc4N)cc3)CC2)C(C)(C)C)cc1 [Compound 263]	> 1000 nM	< 50%	A (“A” indicates maximum degradation ≥75%)	> 10 nM
CN(CCNC(=O)CN1CCN(c2cc(-c3ccccc3O)nnc2N)CC1)CCNc1cccc2c1C(=O)N(C1CCC(=O)NC1=O)C2=O (stereo not drawn) [Compound 96, 2-(4-(3-amino-6-(2-hydroxyphenyl)pyridazin-4-yl)piperazin-1-yl)-N-(2-((2-((2-(2,6-dioxopiperidin-3-yl)-1,3-dioxoisoindolin-4-yl)amino)ethyl)(methyl)amino)ethyl)acetamide]	> 1000 nM	< 50%	C (“C” indicates maximum degradation <50%)	> 1000 nM
Nc1nnc(-c2ccccc2O)cc1OCCc1ccc(C(=O)NCCCCCCCCC(=O)NCc2ccc(S(=O)(=O)Nc3cccc4c(Cl)c[nH]c34)cc2)cc1 [Compound 23, 9-[[4-(2-[[3-amino-6-(2-hydroxyphenyl)pyridazin-4-yl]oxy]ethyl)phenyl]formamido]-N-([4-[(3-chloro-1H-indol-7-yl)sulfamoyl]phenyl]methyl)nonanamide]	> 1000 nM	< 50%	C (“C” indicates maximum degradation <50%)	> 1000 nM
Cc1ncsc1-c1ccc(CNC(=O)[C@@H]2C[C@@H](O)CN2C(=O)[C@@H](NC(=O)CCCCC(=O)NCc2ccc(CCOc3cc(-c4ccccc4O)nnc3N)cc2)C(C)(C)C)cc1 [Compound 27, N′-[[4-(2-[[3-amino-6-(2-hydroxyphenyl)pyridazin-4-yl]oxy]ethyl)phenyl]methyl]-N-[(2S)-1-[(2S,4R)-4-hydroxy-2-([[4-(4-methyl-1,3-thiazol-5-yl)phenyl]methyl]carbamoyl)pyrrolidin-1-yl]-3,3-dimethyl-1-oxobutan-2-yl]hexanediamide]	> 1000 nM	< 50%	A (“A” indicates maximum degradation ≥75%)	> 1000 nM
Nc1nnc(-c2ccccc2O)cc1N1CCN(CC(=O)NCCCCNc2ccc3c(c2)C(=O)N(C2CCC(=O)NC2=O)C3=O)CC1 (stereo not drawn) [Compound 103, 2-[4-[3-amino-6-(2-hydroxyphenyl)pyridazin-4-yl]piperazin-1-yl]-N-(4-[[2-(2,6-dioxopiperidin-3-yl)-1,3-dioxo-2,3-dihydro-1H-isoindol-5-yl]amino]butyl)acetamide]	> 1000 nM	< 50%	C (“C” indicates maximum degradation <50%)	> 1000 nM
